Source: ChEMBL document CHEMBL1201862, “PubChem BioAssay data set” (2004)
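Step 1: Grow cells in 96-well plates. Step 2: Expose to compound for 48 hours at 5 concentrations. Step 3: Interpolate endpoints linearly; if unreached, use highest concentration. GI50 = concentration required for 50% inhibition of growth.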 The source made the active and inactive calls. Rule as the data show it: active = GI50 up to about 1.1 µM and inactive = higher.

Columns and labels:
Assay in all cases: NCI tumour cell line growth inhibition, 48 h
SK-MEL-2 = system: SK-MEL-2
MOLT-4 = system: MOLT-4
UO-31 = system: UO-31
Hs-578T = system: Hs-578T
SNB-19 = system: SNB-19
IGROV-1 = system: IGROV-1
HCT-15 = system: HCT-15
EKVX = system: EKVX
MDA-MB-435 = system: MDA-MB-435
SF-295 = system: SF-295
NCI-H460 = system: NCI-H460
T47D = system: T47D
RPMI-8226 = system: RPMI-8226
TK-10 = system: TK-10
HCT-116 = system: HCT-116
HCC 2998 = system: HCC 2998
M14 = system: M14
RXF 393 = system: RXF 393
A498 = system: A498
OVCAR-8 = system: OVCAR-8

Structure (SMILES) | GI50 (SK-MEL-2) | GI50 (MOLT-4) | GI50 (UO-31) | GI50 (Hs-578T) | GI50 (SNB-19) | GI50 (IGROV-1) | GI50 (HCT-15) [µM] | GI50 (EKVX) | GI50 (MDA-MB-435) | GI50 (SF-295) | GI50 (NCI-H460) | GI50 (T47D) | GI50 (RPMI-8226) | GI50 (TK-10) | GI50 (HCT-116) | GI50 (HCC 2998) | GI50 (M14) | GI50 (RXF 393) | GI50 (A498) | GI50 (OVCAR-8)
C[C@H]1[C@H](C)N1CC(O)Cn1ccnc1[N+](=O)[O-] (some centres undefined) | > 100 µM (inactive) | > 67.6 µM (inactive) | > 100 µM (inactive) | > 100 µM (inactive) | > 100 µM (inactive) | > 100 µM (inactive) | > 100 | > 100 µM (inactive) | > 100 µM (inactive) | > 100 µM (inactive) | > 100 µM (inactive) | > 100 µM (inactive) | > 100 µM (inactive) | > 100 µM (inactive) | > 100 µM (inactive) | > 100 µM (inactive) | > 100 µM (inactive) | > 100 µM (inactive) | > 100 µM (inactive) | > 100 µM (inactive)
COc1ccc(OC)c(NC2=NCCO2)c1 | 18 µM (inactive) | > 100 µM (inactive) | > 100 µM (inactive) | > 100 µM (inactive) | 10.6 µM (inactive) | > 100 µM (inactive) | > 100 | > 100 µM (inactive) | 89.7 µM (inactive) | > 100 µM (inactive) | > 100 µM (inactive) | > 100 µM (inactive) | > 100 µM (inactive) | > 100 µM (inactive) | > 100 µM (inactive) | > 100 µM (inactive) | > 100 µM (inactive) | > 100 µM (inactive) | > 100 µM (inactive) | > 100 µM (inactive)
CC(C)OP(=O)(OC(C)C)/C(C#N)=C/c1c[nH]c2ccccc12 | > 100 µM (inactive) | 88.3 µM (inactive) | – | > 100 µM (inactive) | > 100 µM (inactive) | > 100 µM (inactive) | > 100 | 48.9 µM (inactive) | 65.5 µM (inactive) | 38.9 µM (inactive) | > 100 µM (inactive) | 49.8 µM (inactive) | > 100 µM (inactive) | > 100 µM (inactive) | > 100 µM (inactive) | > 100 µM (inactive) | 60.7 µM (inactive) | > 100 µM (inactive) | > 100 µM (inactive) | 54.6 µM (inactive)
Cc1cc(Cl)cc2c1NC(=O)C2(O)CC(=O)c1ccco1 (centres undefined) | > 85.9 µM (inactive) | 0.92 µM (active) | > 100 µM (inactive) | 88.9 µM (inactive) | > 100 µM (inactive) | 99.3 µM (inactive) | > 100 | > 100 µM (inactive) | 2.92 µM (inactive) | > 73.3 µM (inactive) | > 100 µM (inactive) | > 100 µM (inactive) | 47 µM (inactive) | > 100 µM (inactive) | > 77.3 µM (inactive) | > 100 µM (inactive) | > 66.2 µM (inactive) | 57 µM (inactive) | 62.7 µM (inactive) | > 78.3 µM (inactive)
CCOC(=O)NC(Nc1ccc(S(=O)(=O)Nc2ccc(OC)nn2)cc1)(C(F)(F)F)C(F)(F)F | – | 15.8 µM (inactive) | > 100 µM (inactive) | 35.2 µM (inactive) | 43.2 µM (inactive) | 22.8 µM (inactive) | 49.1 | 37 µM (inactive) | 14.5 µM (inactive) | 37 µM (inactive) | 41.6 µM (inactive) | > 100 µM (inactive) | 20.6 µM (inactive) | 27.7 µM (inactive) | 22.6 µM (inactive) | > 100 µM (inactive) | 18 µM (inactive) | 18.2 µM (inactive) | 26.3 µM (inactive) | 38.2 µM (inactive)
CNC1=C(C)C(=O)C(O)=C([C@H](C)CCC=C(C)C)C1=O | 17.7 µM (inactive) | 6.18 µM (inactive) | 9.82 µM (inactive) | 28.3 µM (inactive) | 31.8 µM (inactive) | 3.91 µM (inactive) | 6.92 | 2.33 µM (inactive) | 29.6 µM (inactive) | 11.4 µM (inactive) | 10.5 µM (inactive) | 25.4 µM (inactive) | 2.94 µM (inactive) | 31 µM (inactive) | 33.9 µM (inactive) | 31.8 µM (inactive) | 22.2 µM (inactive) | 30.7 µM (inactive) | 19.5 µM (inactive) | 10.7 µM (inactive)
C=C(Cl)c1c(OC)cccc1OCc1ccccc1 | > 100 µM (inactive) | 64.7 µM (inactive) | 55 µM (inactive) | > 100 µM (inactive) | > 100 µM (inactive) | 57.5 µM (inactive) | 92.7 | 59.4 µM (inactive) | 37 µM (inactive) | > 100 µM (inactive) | > 100 µM (inactive) | 25.1 µM (inactive) | 43 µM (inactive) | > 100 µM (inactive) | 56.8 µM (inactive) | 37.4 µM (inactive) | > 100 µM (inactive) | 16.7 µM (inactive) | 62.4 µM (inactive) | > 100 µM (inactive)
O=C(O)Cc1ccc(Oc2nc3ccccc3nc2-c2cccs2)cc1 | 84.1 µM (inactive) | 50 µM (inactive) | 37.3 µM (inactive) | 61.7 µM (inactive) | 82.8 µM (inactive) | 68.9 µM (inactive) | 35.3 | 32.4 µM (inactive) | 92 µM (inactive) | 42.6 µM (inactive) | 50.7 µM (inactive) | 20 µM (inactive) | 33.1 µM (inactive) | 95.1 µM (inactive) | 54.6 µM (inactive) | 57.4 µM (inactive) | 66.4 µM (inactive) | 17.4 µM (inactive) | 22.1 µM (inactive) | 71.9 µM (inactive)
COC(=O)N1CC[C@@H]2CCC=C(c3cccc4c3OCO4)[C@@H]21 | > 100 µM (inactive) | 26.1 µM (inactive) | 40.7 µM (inactive) | > 100 µM (inactive) | 74.3 µM (inactive) | > 100 µM (inactive) | 93.3 | 79.4 µM (inactive) | > 100 µM (inactive) | > 100 µM (inactive) | 60 µM (inactive) | 32.1 µM (inactive) | – | 82.8 µM (inactive) | > 100 µM (inactive) | > 100 µM (inactive) | > 100 µM (inactive) | > 100 µM (inactive) | > 100 µM (inactive) | > 100 µM (inactive)
CCN1C(NN)=NS(=O)(=O)c2ccccc21 | > 100 µM (inactive) | > 100 µM (inactive) | > 100 µM (inactive) | > 100 µM (inactive) | > 100 µM (inactive) | > 100 µM (inactive) | > 100 | > 100 µM (inactive) | > 100 µM (inactive) | > 100 µM (inactive) | > 100 µM (inactive) | > 100 µM (inactive) | – | > 100 µM (inactive) | > 100 µM (inactive) | > 100 µM (inactive) | > 100 µM (inactive) | > 100 µM (inactive) | > 100 µM (inactive) | > 100 µM (inactive)
CCOC(=O)NC(Nc1cc(Cl)ccc1OC)(C(F)(F)F)C(F)(F)F | > 100 µM (inactive) | > 100 µM (inactive) | 30.1 µM (inactive) | > 100 µM (inactive) | > 100 µM (inactive) | > 100 µM (inactive) | > 100 | > 100 µM (inactive) | > 100 µM (inactive) | – | > 100 µM (inactive) | > 100 µM (inactive) | > 100 µM (inactive) | > 100 µM (inactive) | > 100 µM (inactive) | > 100 µM (inactive) | > 100 µM (inactive) | 68.9 µM (inactive) | > 100 µM (inactive) | –
C=CCN(CCN(CC=C)S(=O)(=O)c1ccc(C)cc1)S(=O)(=O)c1ccc(C)cc1 | – | > 100 µM (inactive) | > 100 µM (inactive) | > 100 µM (inactive) | > 100 µM (inactive) | – | > 100 | – | > 100 µM (inactive) | > 100 µM (inactive) | > 100 µM (inactive) | > 100 µM (inactive) | – | > 100 µM (inactive) | > 100 µM (inactive) | > 100 µM (inactive) | > 100 µM (inactive) | > 100 µM (inactive) | > 100 µM (inactive) | > 100 µM (inactive)
S=C1SC(=N\c2ccccc2)/C(=N/c2ccccc2)N1c1ccc2ccccc2c1 | > 100 µM (inactive) | – | > 100 µM (inactive) | 64.1 µM (inactive) | > 100 µM (inactive) | > 100 µM (inactive) | 93.3 | – | > 100 µM (inactive) | > 100 µM (inactive) | > 10 µM (inactive) | > 100 µM (inactive) | > 100 µM (inactive) | – | 12.1 µM (inactive) | > 100 µM (inactive) | > 100 µM (inactive) | 7.26 µM (inactive) | > 100 µM (inactive) | > 100 µM (inactive)
CCOC(=O)c1[nH]cc(C)c1-c1ccn(-c2ccccc2)c1 | 61.5 µM (inactive) | 18.3 µM (inactive) | 25.8 µM (inactive) | 25.9 µM (inactive) | – | 14.9 µM (inactive) | 54.5 | 27 µM (inactive) | 41.9 µM (inactive) | 56.4 µM (inactive) | 38.6 µM (inactive) | 35 µM (inactive) | – | 27.5 µM (inactive) | 42.7 µM (inactive) | 41.9 µM (inactive) | 48.2 µM (inactive) | 36.8 µM (inactive) | > 100 µM (inactive) | 38.3 µM (inactive)
c1ccc(/C(=N/Nc2ccccn2)c2ncccn2)cc1 | > 28 µM (inactive) | 0.0662 µM (active) | 0.617 µM (active) | 2.59 µM (inactive) | 4.26 µM (inactive) | 2.07 µM (inactive) | 0.526 | 0.292 µM (active) | 2.77 µM (inactive) | 3.6 µM (inactive) | 0.906 µM (active) | 0.0346 µM (active) | 1.39 µM (inactive) | – | 0.524 µM (active) | > 30 µM (inactive) | 0.386 µM (active) | 11.3 µM (inactive) | > 100 µM (inactive) | 0.369 µM (active)
